# Measurements published in patent publication US12268739B2, “Use of toll-like receptor 2 (TLR-2) agonist for modulating human immune response” (Children's Medical Center Corporation, priority 2018, dated 2025).
# Entries after “also recorded” stand apart in the source; their conditions may differ.
# How the values were obtained:
# THP1-NF-κB cells = assay: THP1-NF-κB cell stimulation for 24 hours, secreted luciferase luminescence; format: cell-based, human
# Procedure: THP-1 Cell Line and Culture Conditions. The THP1-Lucia™ cell line was obtained from Invivogen (San Diego, CA). THP1-Lucia cells, which are human monocytic cells derived from the blood of a child with leukemia, contain an NF-kB-inducible Luc reporter construct. This allows NF-kB activation to be measured by quantifying the luminescence from the secreted luciferase enzyme. THP1-Lucia cells were cultured in RPMI 1640 supplemented with 10% non-heat inactivated fetal bovine serum (FBS), 10 mM HEPES, 1.0 mM sodium pyruvate, 50 ug/ml Pen-Strep, and 100 ug/mL Normocin™. Once cultured, the cells were stored in a 37° C. incubator with 5% CO2 and a humidified atmosphere. Cells were passaged every 2-3 days and not allowed to exceed a concentration of 2.0×10^6 cells/ml media.
# PBMCs were isolated from blood using a Ficoll density gradient. PBMCs either used fresh or were stored at 5×10^7 cells per vial in 1 mL RPMI containing 20% autologous plasma and 10% DMSO at −80° C. until use. Stimulation plates were prepared by transferring 0.66 μl of DMSO-dissolved compounds (30 or 7.5 mM) to each well of a round bottom 96-well plate. PBMCs isolated from human adult donors or THP1-NF-κB cells were resuspended at a concentration of 10^5 cells/200 μl of RPMI supplemented with 10% of platelet-poor plasma or THP1 culture medium, respectively. 200 μl of the cell suspension were transferred to each well resulting in a final compound concentration of 100 or 25 μM. After 24 hours of incubation (37° C., 5% CO2), plates were spun down (500×g, room temperature, 5 minutes) and supernatants were harvested for further analysis.
# C57BL/6 mice = assay: Mouse immunization with rHA, anti-rHA IgG titers by ELISA; format: in vivo; conditions: adult C57BL/6 mice, rHA formulated with compound (100 nmol) i.m., prime Day 0, boost Day 28, versus rHA alone; listed as 080
# Procedure: C57BL/6 mice were obtained from Charles River Laboratories and housed in specific pathogen-free conditions in the animal research facilities at Boston Children's Hospital.
# For immunization experiments, adult mice were immunized intramuscularly (i.m.) in the right posterior thigh with 50 μl of vaccine containing 0.33 μg of each of the following recombinant influenza virus hemagglutinins (rHA): A/Michigan/45/2015 (H1N1), A/Hong Kong/4801/2014 (H3N2), and B/Brisbane/60/2008, contained in the 2016-2017 formulation of the FluBlok vaccine (Protein Sciences Corp.). Mice were immunized with a prime-boost schedule (two injections four weeks apart). Vaccine in all experimental groups was formulated with 10% (v/v) DMSO (except for the groups immunized with the small molecules since they were dissolved in DMSO) and 5% (v/v) Tween-80. As indicated for specific experimental groups, vaccine was also formulated with Aluminium hydroxide (100 μg) or compound 080 (100 nmol, final DMSO concentration 10%). Serum was collected 28 days post-prime (pre-boost blood sample) and 14 days post-boost for antibody detection. rHA-specific IgG were quantified by ELISA. […] The optical density was read at 450 nm Versamax microplate reader with SoftMax Pro Version 5 (both from Molecular Devices) and endpoint titers were calculated using as cutoff three times the optical density of the background.
# human TLR8 = target: T1, human TLR8 (Homo sapiens, UniProt Q9NR97); assay: HEK293 assay for human TLR8 selectivity (NF-κB/SEAP); format: cell-based; conditions: selectivity counter-assay
# T1 construct: host or cells: HEK293 cells with an NF-kB-responsive SEAP reporter gene
# T1 sequence (Q9NR97 27-1041): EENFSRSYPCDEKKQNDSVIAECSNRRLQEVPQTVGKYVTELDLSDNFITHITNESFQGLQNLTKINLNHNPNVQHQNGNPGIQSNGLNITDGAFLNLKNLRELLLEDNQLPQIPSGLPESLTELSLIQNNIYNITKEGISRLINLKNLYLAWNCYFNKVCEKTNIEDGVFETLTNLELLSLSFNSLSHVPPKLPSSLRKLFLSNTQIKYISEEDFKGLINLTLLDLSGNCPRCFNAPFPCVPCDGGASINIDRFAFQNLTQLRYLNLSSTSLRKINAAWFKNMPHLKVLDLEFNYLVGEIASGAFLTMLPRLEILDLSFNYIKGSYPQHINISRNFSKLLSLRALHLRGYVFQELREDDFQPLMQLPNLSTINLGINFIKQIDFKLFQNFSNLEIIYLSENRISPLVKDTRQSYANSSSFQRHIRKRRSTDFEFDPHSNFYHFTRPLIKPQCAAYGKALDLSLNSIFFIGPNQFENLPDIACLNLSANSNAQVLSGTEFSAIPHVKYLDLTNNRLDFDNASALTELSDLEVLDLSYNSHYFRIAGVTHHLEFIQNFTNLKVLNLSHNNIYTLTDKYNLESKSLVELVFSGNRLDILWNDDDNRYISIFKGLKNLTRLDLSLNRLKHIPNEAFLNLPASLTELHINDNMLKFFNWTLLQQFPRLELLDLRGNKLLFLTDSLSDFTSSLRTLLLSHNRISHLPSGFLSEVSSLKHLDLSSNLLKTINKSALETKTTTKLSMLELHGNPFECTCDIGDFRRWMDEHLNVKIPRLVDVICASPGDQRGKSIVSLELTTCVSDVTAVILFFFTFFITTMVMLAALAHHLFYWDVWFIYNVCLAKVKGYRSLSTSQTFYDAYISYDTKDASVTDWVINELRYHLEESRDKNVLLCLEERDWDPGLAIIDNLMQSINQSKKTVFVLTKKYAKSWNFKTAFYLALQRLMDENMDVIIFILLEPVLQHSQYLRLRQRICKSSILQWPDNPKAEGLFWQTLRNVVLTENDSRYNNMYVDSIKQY
# Procedure: HEK293 assay for human TLR2 and TLR8 selectivity: Human embryonic kidney (HEK) 293 cells expressing human TLR2 or TLR8 with an NF-κB-responsive secreted embryonic alkaline phosphatase (SEAP) reporter gene were obtained from Invivogen (San Diego, CA). Cells were maintained in RPMI or DMEM with 10% heat inactivated-FBS and selection antibiotics per the manufacturer's instructions. Cells were plated at 5×10^5 cells/96-well and stimulated with indicated agonist(s) for 24 hours. Supernatants were harvested and analyzed for NF-κB/SEAP activation using the QuantiBlue kit (Invivogen). Values are expressed as fold change in OD650 over vehicle-only treated samples.
structure (smiles),measurement,setting,value
CNC(=O)c1c(NC(=O)c2ccc(S(=O)(=O)N(C)C)cc2)sc2c1CCC2 [Compound 80],Activation of THP1 cells,THP1-NF-κB cells; 384 and 96 well assay,induced activation of THP1 cells
same,"THP1 cells (relative luminescence units, N = 4) Comp at 25 uM","THP1-NF-κB cells; NF-κB-dependent luminescence, compound at 25 uM, 24 hours",8280 relative luminescence units
same,"THP1 cells (relative luminescence units, N = 4) Comp at 100 uM","THP1-NF-κB cells; NF-κB-dependent luminescence, compound at 100 uM, 24 hours",12174 relative luminescence units
same,Adjuvant activity in vivo (anti-rHA IgG titers),C57BL/6 mice,exerts adjuvant activity in vivo; also recorded: higher antibody titers; also recorded: demonstrates in vivo adjuvanticity
same,TLR8 induction in HEK TLR8 cells (SEAP),human TLR8,without induction of TLR8
